Test results: ChEMBL document CHEMBL3044763, “Inhibitory Activities of Rhodanine Derivatives on Plant Growth” (Biosci Biotechnol Biochem, 1996)

Key:
[1] = Toxicity in Mus musculus ddY (mouse) assessed as mortality at 400 mg/kg, ip after 2 days; type: organism-based; parameters: dose 400 mg/kg, route intraperitoneal; settings: in vivo
[2] = Toxicity in Mus musculus ddY (mouse) assessed as mortality at 375 mg/kg, ip after 2 days; type: organism-based; parameters: dose 375 mg/kg, route intraperitoneal; settings: in vivo
[3] = Toxicity in Mus musculus ddY (mouse) assessed as mortality at 300 mg/kg, ip after 1 day; type: organism-based; parameters: dose 300 mg/kg, route intraperitoneal; settings: in vivo
[4] = Toxicity in Mus musculus ddY (mouse) assessed as mortality at 275 mg/kg, ip after 1 day; type: organism-based; parameters: dose 275 mg/kg, route intraperitoneal; settings: in vivo
[5] = Toxicity in Mus musculus ddY (mouse) assessed as mortality at 325 mg/kg, ip after 1 day; type: organism-based; parameters: dose 325 mg/kg, route intraperitoneal; settings: in vivo
[6] = Toxicity in Mus musculus ddY (mouse) assessed as mortality at 375 mg/kg, ip after 1 day; type: organism-based; parameters: dose 375 mg/kg, route intraperitoneal; settings: in vivo
[7] = Toxicity in Mus musculus ddY (mouse) assessed as mortality at 350 mg/kg, ip after 1 day; type: organism-based; parameters: dose 350 mg/kg, route intraperitoneal; settings: in vivo
[8] = system: Brassica rapa subsp. oleifera; assay: Growth inhibition of Brassica rapa subsp. oleifera assessed as chlorophyll b level at 3 x 10^-5 M after 7 days; type: functional; parameters: scale not given: the % may be the effect or the level left
[9] = Toxicity in Mus musculus ddY (mouse) assessed as mortality at 400 mg/kg, ip after 1 day; type: organism-based; parameters: dose 400 mg/kg, route intraperitoneal; settings: in vivo
[10] = system: Brassica rapa subsp. oleifera; assay: Growth inhibition of Brassica rapa subsp. oleifera assessed as chlorophyll b level at 5 x 10^-5 M after 7 days; type: functional; parameters: scale not given: the % may be the effect or the level left
[11] = system: Brassica rapa subsp. oleifera; assay: Growth inhibition of Brassica rapa subsp. oleifera assessed as chlorophyll a level at 1 x 10^-4 M after 7 days; type: functional; parameters: scale not given: the % may be the effect or the level left
[12] = system: Brassica rapa subsp. oleifera; assay: Growth inhibition of Brassica rapa subsp. oleifera assessed as chlorophyll a level at 3 x 10^-4 M after 7 days; type: functional; parameters: scale not given: the % may be the effect or the level left
[13] = Toxicity in Mus musculus ddY (mouse) assessed as mortality at 275 mg/kg, ip after 5 days; type: organism-based; parameters: dose 275 mg/kg, route intraperitoneal; settings: in vivo
[14] = Toxicity in Mus musculus ddY (mouse) assessed as mortality at 325 mg/kg, ip after 5 days; type: organism-based; parameters: dose 325 mg/kg, route intraperitoneal; settings: in vivo
[15] = Toxicity in Mus musculus ddY (mouse) assessed as mortality at 300 mg/kg, ip after 5 days; type: organism-based; parameters: dose 300 mg/kg, route intraperitoneal; settings: in vivo
[16] = Toxicity in Mus musculus ddY (mouse) assessed as mortality at 375 mg/kg, ip after 5 days; type: organism-based; parameters: dose 375 mg/kg, route intraperitoneal; settings: in vivo
[17] = Toxicity in Mus musculus ddY (mouse) assessed as mortality at 350 mg/kg, ip after 5 days; type: organism-based; parameters: dose 350 mg/kg, route intraperitoneal; settings: in vivo
[18] = Toxicity in Mus musculus ddY (mouse) assessed as mortality at 400 mg/kg, ip after 5 days; type: organism-based; parameters: dose 400 mg/kg, route intraperitoneal; settings: in vivo
[19] = Toxicity in Mus musculus ddY (mouse) assessed as mortality at 275 mg/kg, ip after 7 days; type: organism-based; parameters: dose 275 mg/kg, route intraperitoneal; settings: in vivo
[20] = Toxicity in Mus musculus ddY (mouse) assessed as mortality at 325 mg/kg, ip after 7 days; type: organism-based; parameters: dose 325 mg/kg, route intraperitoneal; settings: in vivo
[21] = Toxicity in Mus musculus ddY (mouse) assessed as mortality at 300 mg/kg, ip after 7 days; type: organism-based; parameters: dose 300 mg/kg, route intraperitoneal; settings: in vivo
[22] = Toxicity in Mus musculus ddY (mouse) assessed as mortality at 350 mg/kg, ip after 7 days; type: organism-based; parameters: dose 350 mg/kg, route intraperitoneal; settings: in vivo
[23] = Toxicity in Mus musculus ddY (mouse) assessed as mortality at 400 mg/kg, ip after 7 days; type: organism-based; parameters: dose 400 mg/kg, route intraperitoneal; settings: in vivo
[24] = Toxicity in Mus musculus ddY (mouse) assessed as mortality at 375 mg/kg, ip after 7 days; type: organism-based; parameters: dose 375 mg/kg, route intraperitoneal; settings: in vivo
[25] = Toxicity in Mus musculus ddY (mouse) assessed as mortality at 300 mg/kg, ip after 6 days; type: organism-based; parameters: dose 300 mg/kg, route intraperitoneal; settings: in vivo
[26] = Toxicity in Mus musculus ddY (mouse) assessed as mortality at 275 mg/kg, ip after 6 days; type: organism-based; parameters: dose 275 mg/kg, route intraperitoneal; settings: in vivo
[27] = Toxicity in Mus musculus ddY (mouse) assessed as mortality at 350 mg/kg, ip after 6 days; type: organism-based; parameters: dose 350 mg/kg, route intraperitoneal; settings: in vivo
[28] = Toxicity in Mus musculus ddY (mouse) assessed as mortality at 325 mg/kg, ip after 6 days; type: organism-based; parameters: dose 325 mg/kg, route intraperitoneal; settings: in vivo
[29] = Toxicity in Mus musculus ddY (mouse) assessed as mortality at 400 mg/kg, ip after 6 days; type: organism-based; parameters: dose 400 mg/kg, route intraperitoneal; settings: in vivo
[30] = Toxicity in Mus musculus ddY (mouse) assessed as mortality at 375 mg/kg, ip after 6 days; type: organism-based; parameters: dose 375 mg/kg, route intraperitoneal; settings: in vivo

O=C1CSC(=S)N1 [RHODANINE]
100%: mortality at 48 h [1] | mortality at 48 h [2] | mortality at 120 h [16] | mortality at 120 h [18] | mortality at 168 h [23] | mortality at 168 h [24] | mortality at 144 h [29] | mortality at 144 h [30]
20%: mortality at 24 h [7]
80%: mortality at 24 h [6] | mortality at 24 h [9] | mortality at 120 h [14] | mortality at 120 h [17] | mortality at 168 h [20] | mortality at 168 h [22] | mortality at 144 h [27] | mortality at 144 h [28]
5.08%: Activity [10]
40%: mortality at 24 h [5] | mortality at 120 h [15] | mortality at 168 h [21] | mortality at 144 h [25]
2.09%: Activity [12]
0%: mortality at 24 h [3] | mortality at 24 h [4] | mortality at 120 h [13] | mortality at 168 h [19] | mortality at 144 h [26]
6.76%: Activity [11]
4.8%: Activity [8]
